Assay: Plasma pharmacokinetics of BI 187004 after single oral doses (LC–MS/MS)
Conditions: male, human, plasma, po
Procedure: This was a randomized, double-blind, placebo-controlled, single rising dose study conducted at a single center in Germany. […] Follow-up on an ambulatory basis was performed between 11 and 15 days after study drug administration. […] At the time of use the oral solution for dosing was prepared using the PFOS and a co-supplied aqueous solvent containing HP-beta-cyclodextrin 100 mg/mL. The lowest dose level solutions were prepared by further dilution of the lower concentration solution with additional solvent.
For each accepted run, the acceptance criteria for the calibration standards and quality controls were met.

N#Cc1ccc2c(c1)[C@H]1CCCN(C(=O)c3ccc4[nH]cnc4c3)[C@H]1C2 [BI 187004]
concentration at 2.5 h (2.5 mg, Plasma concentration gMean, 2.5 mg single oral, 2.5 h): 7.33 nM | concentration at 3 h (2.5 mg, Plasma concentration gMean, 2.5 mg single oral, 3 h): 6.19 nM | concentration at 4 h (2.5 mg, Plasma concentration gMean, 2.5 mg single oral, 4 h): 5.87 nM | concentration at 5 h (2.5 mg, Plasma concentration gMean, 2.5 mg single oral, 5 h): 6.61 nM | concentration at 6 h (2.5 mg, Plasma concentration gMean, 2.5 mg single oral, 6 h): 5.38 nM | concentration at 10 h (2.5 mg, Plasma concentration gMean, 2.5 mg single oral, 10 h): 4.38 nM | concentration at 12 h (2.5 mg, Plasma concentration gMean, 2.5 mg single oral, 12 h): 4.53 nM | concentration at 24 h (2.5 mg, Plasma concentration gMean, 2.5 mg single oral, 24 h): 4.54 nM | concentration at 48 h (2.5 mg, Plasma concentration gMean, 2.5 mg single oral, 48 h): 3.93 nM | concentration at 8 h (2.5 mg, Plasma concentration, individual subjects, 2.5 mg single oral, planned time 8 h): 6.73 nM | concentration at 10 h (2.5 mg, Plasma concentration, individual subjects, 2.5 mg single oral, planned time 10 h): 5.99 nM | concentration at 12 h (2.5 mg, Plasma concentration, individual subjects, 2.5 mg single oral, planned time 12 h): 6.44 nM | concentration at 24 h (2.5 mg, Plasma concentration, individual subjects, 2.5 mg single oral, planned time 24 h): 4.19 nM | concentration at 36 h (2.5 mg, Plasma concentration, individual subjects, 2.5 mg single oral, planned time 36 h): 5.06 nM | concentration at 48 h (2.5 mg, Plasma concentration, individual subjects, 2.5 mg single oral, planned time 48 h): 3.58 nM | concentration at 72 h (2.5 mg, Plasma concentration, individual subjects, 2.5 mg single oral, planned time 72 h): 3.34 nM | concentration at 96 h (2.5 mg, Plasma concentration, individual subjects, 2.5 mg single oral, planned time 96 h): 3.04 nM | AUC(0-inf) (5 mg): 2.5 µM·h | AUC(0-t) (5 mg): 1.49 µM·h | Cmax (5 mg): 150 nM | Tmax (5 mg): 1 h | Vd/F (5 mg): 281 L | half-life (5 mg): 33.5 h | concentration at 24 h (5 mg, C24 gMean (%gCV), 5 mg single oral dose): 30 nM | concentration at 0.5 h (5 mg, Plasma concentration Mean, 5 mg single oral): 101 nM | concentration at 1 h (5 mg, Plasma concentration Mean, 5 mg single oral, 1 h): 147 nM | concentration at 1.5 h (5 mg, Plasma concentration Mean, 5 mg single oral, 1.5 h): 135 nM | concentration at 2 h (5 mg, Plasma concentration Mean, 5 mg single oral, 2 h): 122 nM | concentration at 2.5 h (5 mg, Plasma concentration Mean, 5 mg single oral, 2.5 h): 123 nM | concentration at 3 h (5 mg, Plasma concentration Mean, 5 mg single oral, 3 h): 114 nM | concentration at 4 h (5 mg, Plasma concentration Mean, 5 mg single oral, 4 h): 105 nM | concentration at 5 h (5 mg, Plasma concentration Mean, 5 mg single oral, 5 h): 97.4 nM | concentration at 6 h (5 mg, Plasma concentration Mean, 5 mg single oral, 6 h): 81.2 nM | concentration at 8 h (5 mg, Plasma concentration Mean, 5 mg single oral, 8 h): 72.9 nM | concentration at 10 h (5 mg, Plasma concentration Mean, 5 mg single oral, 10 h): 58 nM | concentration at 12 h (5 mg, Plasma concentration Mean, 5 mg single oral, 12 h): 49.7 nM | concentration at 24 h (5 mg, Plasma concentration Mean, 5 mg single oral, 24 h): 31 nM | concentration at 36 h (5 mg, Plasma concentration Mean, 5 mg single oral, 36 h): 14.9 nM | concentration at 48 h (5 mg, Plasma concentration Mean, 5 mg single oral, 48 h): 13.1 nM | concentration at 72 h (5 mg, Plasma concentration Mean, 5 mg single oral, 72 h): 7.42 nM | concentration at 96 h (5 mg, Plasma concentration Mean, 5 mg single oral, 96 h): 4.78 nM | concentration at 0.5 h (5 mg, Plasma concentration Median, 5 mg single oral): 128 nM | concentration at 1 h (5 mg, Plasma concentration Median, 5 mg single oral, 1 h): 141 nM | concentration at 1.5 h (5 mg, Plasma concentration Median, 5 mg single oral, 1.5 h): 140 nM | concentration at 2 h (5 mg, Plasma concentration Median, 5 mg single oral, 2 h): 126 nM | concentration at 2.5 h (5 mg, Plasma concentration Median, 5 mg single oral, 2.5 h): 121 nM | concentration at 3 h (5 mg, Plasma concentration Median, 5 mg single oral, 3 h): 113 nM | concentration at 4 h (5 mg, Plasma concentration Median, 5 mg single oral, 4 h): 98.4 nM | concentration at 5 h (5 mg, Plasma concentration Median, 5 mg single oral, 5 h): 98.1 nM | concentration at 6 h (5 mg, Plasma concentration Median, 5 mg single oral, 6 h): 78.8 nM | concentration at 8 h (5 mg, Plasma concentration Median, 5 mg single oral, 8 h): 71 nM | concentration at 10 h (5 mg, Plasma concentration Median, 5 mg single oral, 10 h): 57.1 nM | concentration at 12 h (5 mg, Plasma concentration Median, 5 mg single oral, 12 h): 50.3 nM | concentration at 24 h (5 mg, Plasma concentration Median, 5 mg single oral, 24 h): 32.2 nM | concentration at 36 h (5 mg, Plasma concentration Median, 5 mg single oral, 36 h): 15.5 nM | concentration at 48 h (5 mg, Plasma concentration Median, 5 mg single oral, 48 h): 11.2 nM | concentration at 72 h (5 mg, Plasma concentration Median, 5 mg single oral, 72 h): 6.1 nM | concentration at 96 h (5 mg, Plasma concentration Median, 5 mg single oral, 96 h): 4.24 nM | concentration at 0.5 h (5 mg, Plasma concentration gMean, 5 mg single oral): 63.7 nM | concentration at 1 h (5 mg, Plasma concentration gMean, 5 mg single oral, 1 h): 144 nM | concentration at 1.5 h (5 mg, Plasma concentration gMean, 5 mg single oral, 1.5 h): 134 nM | concentration at 2 h (5 mg, Plasma concentration gMean, 5 mg single oral, 2 h): 121 nM | concentration at 2.5 h (5 mg, Plasma concentration gMean, 5 mg single oral, 2.5 h): 122 nM | concentration at 3 h (5 mg, Plasma concentration gMean, 5 mg single oral, 3 h): 113 nM | concentration at 4 h (5 mg, Plasma concentration gMean, 5 mg single oral, 4 h): 104 nM | concentration at 5 h (5 mg, Plasma concentration gMean, 5 mg single oral, 5 h): 96 nM | concentration at 6 h (5 mg, Plasma concentration gMean, 5 mg single oral, 6 h): 79.9 nM | concentration at 8 h (5 mg, Plasma concentration gMean, 5 mg single oral, 8 h): 71.8 nM | concentration at 10 h (5 mg, Plasma concentration gMean, 5 mg single oral, 10 h): 56.8 nM | concentration at 12 h (5 mg, Plasma concentration gMean, 5 mg single oral, 12 h): 48.5 nM | concentration at 24 h (5 mg, Plasma concentration gMean, 5 mg single oral, 24 h): 30 nM | concentration at 36 h (5 mg, Plasma concentration gMean, 5 mg single oral, 36 h): 14.2 nM | concentration at 48 h (5 mg, Plasma concentration gMean, 5 mg single oral, 48 h): 12.5 nM | concentration at 72 h (5 mg, Plasma concentration gMean, 5 mg single oral, 72 h): 7.05 nM | concentration at 96 h (5 mg, Plasma concentration gMean, 5 mg single oral, 96 h): 4.6 nM | concentration at 1 h (5 mg, Plasma concentration, individual subjects, 5 mg single oral, planned time 1 h): 112 nM | concentration at 1.5 h (5 mg, Plasma concentration, individual subjects, 5 mg single oral, planned time 1.5 h): 144 nM | concentration at 2 h (5 mg, Plasma concentration, individual subjects, 5 mg single oral, planned time 2 h): 127 nM | concentration at 2.5 h (5 mg, Plasma concentration, individual subjects, 5 mg single oral, planned time 2.5 h): 122 nM | concentration at 3 h (5 mg, Plasma concentration, individual subjects, 5 mg single oral, planned time 3 h): 118 nM | concentration at 4 h (5 mg, Plasma concentration, individual subjects, 5 mg single oral, planned time 4 h): 99.5 nM | concentration at 5 h (5 mg, Plasma concentration, individual subjects, 5 mg single oral, planned time 5 h): 96.9 nM | concentration at 6 h (5 mg, Plasma concentration, individual subjects, 5 mg single oral, planned time 6 h): 80.6 nM | concentration at 8 h (5 mg, Plasma concentration, individual subjects, 5 mg single oral, planned time 8 h): 72.1 nM | concentration at 24 h (5 mg, Plasma concentration, individual subjects, 5 mg single oral, planned time 24 h): 35.1 nM | concentration at -0.5 h (5 mg, Plasma concentration, individual subjects, 5 mg single oral, planned time –0.5 h): 90.2 nM | AUC(0-inf) (10 mg): 5.91 µM·h | AUC(0-t) (10 mg): 4.38 µM·h | Cmax (10 mg): 502 nM | Tmax (10 mg): 1 h | Vd/F (10 mg): 169 L | half-life (10 mg): 23.7 h | concentration at 24 h (10 mg, C24 gMean (%gCV), 10 mg single oral dose): 71.3 nM | concentration at 0.5 h (10 mg, Plasma concentration Mean, 10 mg single oral): 365 nM | concentration at 1 h (10 mg, Plasma concentration Mean, 10 mg single oral, 1 h): 429 nM | concentration at 1.5 h (10 mg, Plasma concentration Mean, 10 mg single oral, 1.5 h): 438 nM | concentration at 2 h (10 mg, Plasma concentration Mean, 10 mg single oral, 2 h): 382 nM | concentration at 2.5 h (10 mg, Plasma concentration Mean, 10 mg single oral, 2.5 h): 376 nM | concentration at 3 h (10 mg, Plasma concentration Mean, 10 mg single oral, 3 h): 339 nM | concentration at 4 h (10 mg, Plasma concentration Mean, 10 mg single oral, 4 h): 346 nM | concentration at 5 h (10 mg, Plasma concentration Mean, 10 mg single oral, 5 h): 277 nM | concentration at 6 h (10 mg, Plasma concentration Mean, 10 mg single oral, 6 h): 260 nM | concentration at 8 h (10 mg, Plasma concentration Mean, 10 mg single oral, 8 h): 213 nM | concentration at 10 h (10 mg, Plasma concentration Mean, 10 mg single oral, 10 h): 182 nM | concentration at 12 h (10 mg, Plasma concentration Mean, 10 mg single oral, 12 h): 146 nM

From PMC8364686, “Safety, tolerability, pharmacokinetics and pharmacodynamics of single oral doses of BI 187004, an inhibitor of 11beta-hydroxysteroid dehydrogenase-1, in healthy male volunteers with overweight or obesity” (Clinical Diabetes and Endocrinology, 2021)
